Experimental findings from PubChem BioAssay (NCI) are described below.

Test systems include SK-MEL-2 melanoma; OVCAR-4 ovarian; HOP-92 NSCLC; MALME-3M melanoma; SNB-19 CNS; IGROV1 ovarian; SNB-75 CNS; ACHN renal; DU-145 prostate; NCI-H460 lung.
Experiment in all cases: NCI anticancer screen, dose series, 48 h

“And” between values parts separate entries of the source, which are not always exact repeats. Identical values can stand only once.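 48-hour exposure; five concentrations; linearly interpolated endpoints. Abbreviation: GI50, concentration required for 50% inhibition of growth. At the TGI there is no net growth.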 Bounds are passed on as bounds.

Turning to `CC(C)(CN1CCCCC1)C(=O)/C=C/c1ccc(/C=C/C(=O)C(C)(C)CN2CCCCC2)cc1`, the TGI was 4.62 µM in the experiment on SK-MEL-2 melanoma; 1.47 µM in the experiment with OVCAR-4 ovarian; 1.58 µM in the experiment with HOP-92 NSCLC; 2.24 µM in the experiment with MALME-3M melanoma; 3.15 µM in the experiment on SNB-19 CNS; 1.52 µM in the experiment with IGROV1 ovarian. Further, the TGI is 1.82 µM with SNB-75 CNS, 0.669 µM with ACHN renal, 5.05 µM in the experiment on DU-145 prostate and 1.96 µM with NCI-H460 lung.
As for `c1ccc2sc(SCCSc3nc4ccccc4s3)nc2c1`, the TGI in the experiment with SK-MEL-2 melanoma, with OVCAR-4 ovarian, in the experiment with HOP-92 NSCLC, in the experiment on MALME-3M melanoma, in the experiment on SNB-19 CNS and in the experiment on IGROV1 ovarian was > 100 µM throughout. In addition, the TGI with SNB-75 CNS, in the experiment with ACHN renal, with DU-145 prostate and in the experiment on NCI-H460 lung was > 100 µM in each case.
Consider `COc1ccc(C2=N[C@@H](Cc3ccccc3)C(=O)Nc3ccsc32)cc1`, for which the GI50 in the experiment with SK-MEL-2 melanoma was 11.7 µM; with OVCAR-4 ovarian it was 11.2 µM; with HOP-92 NSCLC, 2.32 µM; in the experiment with MALME-3M melanoma, 10.4 µM; with SNB-19 CNS it was 9.93 µM; in the experiment on IGROV1 ovarian, 12.8 µM. Further, the GI50 in the experiment with SNB-75 CNS is 2.05 µM; in the experiment with ACHN renal it was 6.27 µM; in the experiment on DU-145 prostate, 4.65 µM; in the experiment with NCI-H460 lung it was 3.53 µM. The TGI in the experiment with SK-MEL-2 melanoma was 30 µM; with OVCAR-4 ovarian it was 83 µM; in the experiment on HOP-92 NSCLC it was 16.7 µM; in the experiment on MALME-3M melanoma, 25.9 µM; with SNB-19 CNS, 58.3 µM; with IGROV1 ovarian it was 41 µM. The TGI turned out to be 7.08 µM in the experiment on SNB-75 CNS, 39.1 µM with ACHN renal, 21.9 µM in the experiment with DU-145 prostate and 14.4 µM in the experiment with NCI-H460 lung.
Consider `O=Nc1ccc(O)c(=O)cc1`, for which the GI50 was 2.61 µM in the experiment on SK-MEL-2 melanoma; 1.71 µM with OVCAR-4 ovarian; 0.998 µM in the experiment on HOP-92 NSCLC; 1.21 µM in the experiment with MALME-3M melanoma; 13.5 µM in the experiment with SNB-19 CNS; 3.77 µM in the experiment with IGROV1 ovarian. The GI50 was 3.77 µM with SNB-75 CNS, 0.906 µM with ACHN renal, 3.74 µM with DU-145 prostate and 4.76 µM in the experiment with NCI-H460 lung. In addition, the TGI in the experiment with SK-MEL-2 melanoma was determined as 5.89 µM; in the experiment on OVCAR-4 ovarian, 4.83 µM; in the experiment on HOP-92 NSCLC it was 3.39 µM; in the experiment on MALME-3M melanoma it was 4.14 µM; with SNB-19 CNS it was 27.3 µM; in the experiment with IGROV1 ovarian, 11.3 µM. Further, the TGI in the experiment with SNB-75 CNS stood at 17.2 µM; with ACHN renal, 2.63 µM; in the experiment on DU-145 prostate it was 10.8 µM; with NCI-H460 lung, 23.5 µM.
`CCC(C)[C@H]1O[C@]2(CC[C@@H]1C)C[C@@H]1C[C@@H](C/C=C(\C)[C@@H](OC3C[C@H](OC)C(O[C@H]4C[C@H](OC)[C@@H](O)[C@H](C)O4)[C@H](C)O3)[C@@H](C)/C=C/C=C3\CO[C@@H]4[C@H](O)C(C)=C[C@@H](C(=O)O1)[C@]34O)O2` (stereo not given in full): the GI50 with SK-MEL-2 melanoma is 2.04 µM; with OVCAR-4 ovarian, 3.28 µM; in the experiment with HOP-92 NSCLC, 1.98 µM; in the experiment on MALME-3M melanoma it was 2.74 µM; with SNB-19 CNS it was 3.75 µM; in the experiment with IGROV1 ovarian, 2.95 µM. The GI50 with SNB-75 CNS is 2.69 µM; in the experiment on ACHN renal it was 1.73 µM; with DU-145 prostate, 5.59 µM; with NCI-H460 lung, 2.91 µM. In addition, the TGI with SK-MEL-2 melanoma came out at 4.79 µM; in the experiment on OVCAR-4 ovarian, 10.8 µM; in the experiment on HOP-92 NSCLC, 8.18 µM; in the experiment on MALME-3M melanoma it was 14.5 µM; in the experiment with SNB-19 CNS, 15.6 µM; in the experiment with IGROV1 ovarian, 13.5 µM. Also, the TGI was 7.56 µM in the experiment on SNB-75 CNS, 3.48 µM in the experiment with ACHN renal, 18.1 µM with DU-145 prostate and 10.6 µM in the experiment with NCI-H460 lung.
Turning to `Nc1nccc(-c2c(-c3ccc(F)cc3)ncn2C2CCNCC2)n1`, the GI50 with SK-MEL-2 melanoma is 13.6 µM and 3.64 µM; in the experiment with OVCAR-4 ovarian, 1.86 µM and 2.77 µM; in the experiment on HOP-92 NSCLC, 3.07 µM; with MALME-3M melanoma it was 8.72 µM and 5.23 µM; in the experiment with SNB-19 CNS, 6.91 µM and 3.96 µM; in the experiment with IGROV1 ovarian it was 5.13 µM and 4.73 µM. For the same compound, the GI50 in the experiment on SNB-75 CNS is 2.91 µM and 1.17 µM; with ACHN renal it was 7.61 µM and 1.41 µM; in the experiment with DU-145 prostate, 7.77 µM and 3.96 µM; in the experiment on NCI-H460 lung, 1.55 µM and 1.36 µM. The TGI with SK-MEL-2 melanoma is > 25 µM and 13 µM; with OVCAR-4 ovarian, > 25 µM and 13.1 µM; with HOP-92 NSCLC, > 25 µM; in the experiment with MALME-3M melanoma, > 25 µM and 21.4 µM; in the experiment with SNB-19 CNS, > 25 µM; in the experiment with IGROV1 ovarian, > 25 µM. In addition, the TGI in the experiment with SNB-75 CNS was > 23.4 µM and 12.7 µM; in the experiment on ACHN renal, > 25 µM; in the experiment on DU-145 prostate, > 25 µM; in the experiment on NCI-H460 lung it was > 25 µM.
